Like-named read-outs stand apart in the source and are kept apart here.
What was measured:
[1] = test system: HaCaT cells; assay: Cellular photoactivation assay (white light or dark, Alamar Blue); assay type: cell-based, human; settings: for Dark cytotoxicity to HaCaT cells (in words) / Photoactivation, dark versus white light (in words) / IC50: 4 h incubation; for Dark cytotoxicity to HaCaT cells (in words) / Photoactivation, dark versus white light (in words): 6.25–100 μM applied; for Photoactivation, dark versus white light (in words): white light 6.6 J cm^−2; for IC50: Homo sapiens, HaCaT, concentrations corrected for uptake
Method: A white light LED homemade device prototype has 96 LEDs appropriately arranged on a plate of 13 cm length × 8 cm width, with a distance from the microplate surface of 8 cm. The prototype has an irradiance of 21 W m^−2 and a wavelength range of 408–707 nm (Fig. S4).
For the cellular photoactivation assays, the white light source of 21 W m^−2 was used. Briefly, cells were seed at a density of 4 × 10^4 cells/mL onto 96 –well plates and after 24 h the compounds were added to the plates in different concentrations (6.25–100 μM) and incubated for a period of 4 h at 37 °C in an atmosphere of 5% CO2 and in the presence of DMEM with 2% FBS. After this period, the medium with the compounds was removed and fresh medium (DMEM with 2% FBS without phenol red (DMEM_2% FBS_w/o_PR) was added to cells. Following this procedure, cells were submitted to light irradiation, the selected light source at a height of 8 cm, in a chamber designed to ensure the same light quantity for each well during the treatment. Cells were irradiated for 10 min at an intensity of 50%, at room temperature (making a total energy exposition of 6.6 J cm^−2). The dark treatment was prepared by placing the plates for 10 min in a dark box at room temperature. After this, the 96 well plates were placed in an incubator at 37 °C in an atmosphere of 5% CO2 for 24 h. Then, to determine cell survival the Alamar Blue assay was performed as follows: after the 24 h, 20 μL of a solution of Resazurin (0.15 mg mL^−1 in PBS filtered in 0.22 μm filters) were added to each well (making a total volume of 120 μL per well), and the plates were incubated between 4–6 h (until the development of visible color change from violet to pink). The fluorescence intensity of each well was then determined at 560/590 nm (ex/em) (FlexStation 3 Multi-Mode Microplate Reader).

[2] = test system: HaCaT cells; assay: Photodynamic therapy mechanism determination with type I/type II quenchers; assay type: cell-based, human; settings: compound 50 μΜ, light 6.6 J cm^−2
Method: For the determination of the photoactivation mechanism that yielded to cell death, cells were seeded as previously described for the photoactivation assays. […] The incubation proceeded for a time period of 4 h. After this, solutions containing the compounds were removed from cells and fresh medium containing the different quenchers were added to cells. Cells were irradiated for 10 min at an intensity of 50%, at room temperature (making a total energy exposition of 6.6 J cm^−2). The dark treatment was done by placing the plates for 10 min in a dark box at room temperature. After this, the medium was removed and replaced by fresh medium without any additive. The 96 well plates were then placed in an incubator at 37 °C in an atmosphere of 5% CO2 for 24 h. Finally, the Alamar Blue assay was performed to determine cell survival as previously described.

[3] = parameters: method as in doi:10.1016/j.cplett.2017.02.055; settings: cited from earlier work
[4] = Fluorescence quantum yield by the absolute method (integrating sphere); assay type: physicochemical; settings: in DMSO
Method: Based on the absorbance maxima of the different compounds (Fig. S2), the measurement of the quantum yield (QY) of the synthesized flavylium derivatives was performed using a calibrated Quantaurus-QY stand-alone integrating sphere setup C11347-11 (Hamamatsu Photonics, Hamamatsu, Japan) equipped with an integration sphere, a monochromator, a spectrograph, a 150 W xenon light source and a silicon charge coupled device. Each compound was dissolved in DMSO and diluted to ensure an absorbance of 0.1 from the λmax of excitation forward. Each compound was then irradiated at the corresponding wavelength and the absolute quantum yield determined. The fluorescence spectra was also recorded (Fig. S3). For each compound, four independent experiments were performed.

[5] = MTT cytotoxicity assay, keratinocytes; assay type: cell-based; settings: human, HaCaT cells (keratinocytes), dark
Method: The cytotoxicity of amino-based flavylium compounds to HFF-1 (ATCC Number: SCRC-1041) and HaCaT cells was evaluated using the standard MTT assay. Briefly, cells were seeded at a density of 8 × 10^5 and 4 × 10^4 cells/mL, respectively, in 96-well plate and incubated at 37 °C in a 5% CO2 atmosphere. Cells were allowed to grow for 24 h or until reaching monolayer confluency, and serially diluted compound solutions (6.3–100 µM) were added to the plate wells. The stock solutions of each compound were prepared at 200 mM in DMSO, the maximum % of DMSO in the cells was 0.05%. Then, cells were incubated for 48 h at 37 °C, after which the plate wells were washed once with phosphate buffered saline (PBS, Sigma-Aldrich), followed by addition of a 0.45 mg/mL MTT solution to each well. Crystals were allowed to form for 1.5 h. The reaction was stopped by rejecting the medium followed by the addition of 100 µL of DMSO (Sigma-Aldrich). The absorbance was read at 570 nm in FlexStation 3 Multi-Mode Microplate Reader (Molecular Devices, California, USA).

[6] = white light 6.6 J cm^−2 (10 min), read-out: IC50 of HaCaT cell survival, LIGHT
[7] = 4 h, kept in the dark, read-out: IC50 of HaCaT cell survival, DARK

| Structure (SMILES) | Dark cytotoxicity to HaCaT cells (in words) [1] | Photoactivation, dark versus white light (in words) [1] | IC50 [1, 6] [µM] | Increase of cell survival with quencher ([2]; D-mannitol 10 mM (type I)) [%] | Increase of cell survival with quencher ([2]; L-cysteine 10 mM (type I)) [%] | Increase of cell survival with quencher ([2]; L-histidine 10 mM (type II)) [%] | Increase of cell survival with quencher ([2]; sodium azide 10 mM (type II)) [%] | Fluorescence quantum yield [3] [%] | Quantum yield of fluorescence (Φf), mean ± SD [4] [%] | IC50 at 48 h ([5]; monolayer confluence) [µM] | IC50 at 48 h ([5]; proliferation) [µM] | IC50 [1, 7] [µM] | Cell survival, minimum ([1]; white light irradiation, highest concentration applied) [%] |
| --- | --- | --- | --- | --- | --- | --- | --- | --- | --- | --- | --- | --- | --- |
| C=CC1=C(C)c2cc3[nH]c(cc4nc(cc5[nH]c(cc1n2)c(C)c5CCC(=O)O)C(CCC(=O)O)=C4C)c(C)c3C=C [PpIX, protoporphyrin IX, reference compound] | no cytotoxic effects in dark conditions | effective photoactivation from the three higher concentrations | 0.3 | 27 | 26 | 42 | 37 | 8.5 |  |  |  |  |  |
| CCN(CC)c1ccc2ccc(/C=C/c3ccc(N(C)C)cc3)[o+]c2c1 [7NEt2st4′NMe2, 7-(diethylamino)-2-(4′-dimethylaminostyryl)-benzopyrylium] | significant dark cytotoxicity | significant photoactivation was found for the last four concentrations | 1.08 ± 0.13 | 22 | 16 | 46 | 31 |  | 3.40 ± 0.17 | 91 ± 0.8 | 35.42 ± 0.02 | 5.11 ± 0.196 |  |
| CCN(CC)c1ccc2ccc(-c3ccc(N)cc3)[o+]c2c1 [7NEt24′NH2, 4′-amino-7-diethylamino-benzopyrylium] | significant decrease of cell survival | potential photo-activation | 1.53 ± 0.081 | 14 | 27 | 33 | 31 |  |  | 29.8 ± 0.8 | 8.9 ± 0.2 | 3 ± 0.734 |  |
| CCN(CC)c1ccc2ccc(-c3ccc(N(C)C)cc3)[o+]c2c1 [7NEt24′NMe2, 7-diethylamino-4′-dimethylamino-benzopyrylium] | absence of dark cytotoxicity | photoactivation even for low concentrations | 0.905 ± 0.231 | 6 | 13 | 44 | 27 |  | 5.83 ± 0.28 |  |  |  | 38 |

Reference: article PMC8578629, “Photoactivated cell-killing amino-based flavylium compounds” (Scientific Reports, 2021)
